In assay [1] the test system is rats of adenine induced kidney injury model. As to the kind of experiment: Adenine-induced kidney injury. In kind it is in vivo, SD rats. To be noted: 15 mg/kg, 21 days; FIG. 12.
In assay [2] the test system is APP/PS1 mice. As to the kind of experiment: Cognitive dysfunction in APP/PS1 mice. In kind it is in vivo. Here is the method: Male transgenic APP/PS1 mice were purchased from the Model Animal Research Center of Nanjing University, and after being raised to 12 weeks old, the APP/PS1 mice were divided into three groups: normal C57 group (WT), model control group (APP/PS1+Vehicle), and TJ01-013 treatment group (APP/PST+TJ01-013). The mode of administration was by oral gavage, normal group and model control group were administered vehicle by oral gavage, the concentration of TJ01-013 was 30 mg/kg, the gavage volume was 5 ml/kg, the frequency of administration was once a day, and the administration period was 3 months. • (2) Water maze experiment
The water maze device is a circular pool (140 cm in diameter) filled with dissolved titanium dioxide water, keeping the water temperature at 22° C. A platform with a diameter of 12 cm was placed at a fixed position 1 cm below the water surface, and the mice were trained in four quadrants every day for five consecutive days. Each quadrant lasted 60 seconds or until the mice found the platform. […] All parameters were recorded by a video tracking system.
Mouse heart perfusion for brain extraction: APP/PS1 mice and control C57BL/6J mice were anesthetized, and after they became unconscious, the limbs were fixed on a dissection table in a fuming hood, and the abdominal skin was cut with scissors after alcohol disinfection to expose the liver. The diaphragm was quickly cut, and the heart was exposed by turning upward after clamping the xiphoid with hemostatic forceps. Prepared PBS was injected into the left ventricle, noting that the direction was toward the aorta. The peristaltic pump was turned on after opening the right auricle and the blood was drained at a low rate at first. When the heart stopped beating or the fluid pumped at the right auricle was clarified and colorless, the mouse liver can be seen to turn grayish white. The fur was cut open along the midline of the mouse hindbrain with scissors, and the skull was exposed, then forceps were inserted from the criss-cross of the mouse's brain shell, and scissors were used to assist in peeling off the skull, and then the intact whole brain was removed. The fresh mouse whole brain was halved and placed in a 5 mL centrifuge tube, and 4 mL of 4% paraformaldehyde fixative was added to fix for 24 h, sections were made for antigenic repair, incubated for 30 min with dropwise adding of BSA at a concentration of 3-5%, and stained overnight with polyclonal rabbit anti-GFAP antibody (1:100) and mouse anti-β-amyloid protein 1-16 antibody (1:100), and after the sections were washed in PBS three times, the corresponding fluorescent secondary antibody was added dropwise to cover the tissue, and the sections were incubated in dark for 1 h, the slides were washed and stained with DAPI staining solution added dropwisely for 10 min, and the sections were sealed with resin sealer, and finally imaged with Cytation3.
Mouse brain tissue homogenates were prepared according to the brain tissue homogenization method described in the Life Technologies ELISA Technical Guide. […]

Assay [3] deals with mice with renal ischemia-reperfusion. Kind of assay: Unilateral renal ischemia-reperfusion acute kidney injury. In kind it is in vivo, C57BL/6 mice. How it is done: 8-week-old C57BL/6 mice (weighing about 20-25 g) were injected intraperitoneally with 50 mg/kg sodium pentobarbital. After the mice were anesthetized, carried out preserved skin and placed on a thermostatic table, the skin and muscle of the right side were incised from the back and the right kidney was exposed, and the tissue around the pedicle of the kidney was stripped off with forceps to expose the blood vessels and the ureter. The arterial and venous blood vessels and the ureter were ligated with sutures. After removing the kidney, the muscle and skin were sutured with sutures and placed at 37° C. to wake it up, and after waking up, the mice were given […] of I-1. The experiments were divided into a sham group (exposing the right side of the kidney without removing it), a control group (giving solvent treatment by oral gavage), a 10 mg/kg group (10 mg/kg I-1 by oral gavage) and a 30 mg/kg group (30 mg/kg I-1 by oral gavage), with being administered once a day, and left kidney ischemia-reperfusion was performed on the sixth day, the specific plan was: mice were injected intraperitoneally with 50 mg/kg sodium pentobarbital, after anesthetizing, carried out preserved skin and placed on a thermostatic table, the skin and muscle of the left side were cut from the back and the left kidney was exposed, and the tissue around the pedicle of the kidney was stripped off with forceps to expose the blood vessels, and the arterial clip were used to tighten the blood vessel, after ischemia for 45 min, the arterial clip were released and the kidney tissue was returned to its place with a cotton swab, and finally the muscle and skin were sutured with a suture lines and the mice were placed at 37° C. to wake it up, and given another drug treatment after waking up. Blood was taken from the eyeball after 24 h of reperfusion, and the blood was centrifuged at 12000 g for 10 min at 4° C. after standing at room temperature for 45 min, and the supernatant (serum) was taken to detect the level of creatinine and urea nitrogen in the serum with a biochemical analyzer.
After blood extraction from the mouse eyeballs, cardiac perfusion was performed with PBS, after mice were anesthetized and fixed on a foam plate with a needle, the skin and ribs of the chest and abdomen were cut open to expose the heart, the injection needle was inserted into the left ventricle of mice and the pericardium was cut open at the same time, and the perfusion was performed with PBS at a speed of 7 rpm until the liver turned white and then the perfusion was stopped, the kidneys were taken out, and the renal peritoneum was removed, and the kidneys were put into 4% paraformaldehyde and fixed and immersed for 72 h. Subsequently, tissue embedding was carried out. Then tissue embedding, sectioning and HE staining were performed as follows:
Tissue was dewaxed after embedding and sectioning, and performed antigen repair, 5% goat serum sealing solution was added dropwise at 37° C. for 40 min, 50 μl of KIM-1 and caspase3 primary antibody (1:500) was added dropwise, overnight at 4° C.; after rewarming at 37° C. for 30 min, the tissue was washed by PBS four times, each time for 5 min. And then fluorescence secondary antibody was added dropwise for Ih, and the tissue was washed by PBS four times, each time for 5 min, finally, the tissue was stained by DAPI for 10 min, sealed with nail polish, and images were collected by cytation 3.

Where [4] appears, read: reperfusion 24 h, oral gavage 10 mg/kg and 30 mg/kg, FIG. 1.

This is an account of results in patent US20260027073A1, “USE OF SMALL-MOLECULE COMPOUND HAVING NAPHTHYLAMINE STRUCTURE” (HANGZHOU PHECDAMED CO., LTD., priority 2023, published 2026).

With `O=C(O)C[S+]([O-])c1cc(NS(=O)(=O)c2ccc(Br)cc2)c2ccccc2c1O` (stereo not drawn) [I-1], the “IL-1β level in kidney tissues” value in assay [1] is on record as “tendency to be decreased”. The “time to find the platform (water maze)” value in assay [2] (30 mg/kg oral gavage, 3 months, FIG. 42) was “significantly reduced”. Also, in assay [2] (FIG. 44), the “astrocyte activation in the hippocampal region (GFAP)” value is on record as “significantly reduced”; the “number and size of Aβ plaques” value is reported as “significant decrease”. In addition, in assay [2] (FIG. 45), the “amount of Aβ in the brain tissues (Elisa)” value is “significantly decreased”. Besides, in assay [2] (vs APP/PS1 Vehicle group, FIG. 43), the “number of crossing over the platform (water maze)” value was “significantly larger”. For the same compound, the “damage to renal tissues (HE staining)” value in assay [3] (FIG. 2) is “alleviated the damage to renal tissues”. In assay [3] (FIG. 3), the “KIM-1 level in renal tissue (immunostaining)” value is “inhibited” and the “cleaved-caspase3 level in renal tissue (immunostaining)” value is on record as “inhibited”. Besides, in assay [3] (setting [4]), the serum creatinine level result is given as “significantly reduced” and the “serum urea nitrogen level” value is recorded as “significantly reduced”.
On to `O=C(O)CSc1cc(NS(=O)(=O)c2ccc(Br)cc2)c2ccccc2c1O` [UMI-77, reference compound], for which the “treatment of renal ischemia-reperfusion injury compared with I-1” value in assay [3] (UMI-77 group vs I-1) is recorded as “less effective”.
